The record followed here is US20200405697A1, “Antitumor Agent” (Taiho Pharmaceutical Co., Ltd, priority 2017, published 2020).

The structures appear in SMILES notation.

For the test, the target named is T1, human RNR (histidine tagged human M1 and human M2 proteins) (Homo sapiens, UniProt P23921).
T1 construct: made in house; host or cells: Escherichia coli
T1 sequence (P23921 1-792): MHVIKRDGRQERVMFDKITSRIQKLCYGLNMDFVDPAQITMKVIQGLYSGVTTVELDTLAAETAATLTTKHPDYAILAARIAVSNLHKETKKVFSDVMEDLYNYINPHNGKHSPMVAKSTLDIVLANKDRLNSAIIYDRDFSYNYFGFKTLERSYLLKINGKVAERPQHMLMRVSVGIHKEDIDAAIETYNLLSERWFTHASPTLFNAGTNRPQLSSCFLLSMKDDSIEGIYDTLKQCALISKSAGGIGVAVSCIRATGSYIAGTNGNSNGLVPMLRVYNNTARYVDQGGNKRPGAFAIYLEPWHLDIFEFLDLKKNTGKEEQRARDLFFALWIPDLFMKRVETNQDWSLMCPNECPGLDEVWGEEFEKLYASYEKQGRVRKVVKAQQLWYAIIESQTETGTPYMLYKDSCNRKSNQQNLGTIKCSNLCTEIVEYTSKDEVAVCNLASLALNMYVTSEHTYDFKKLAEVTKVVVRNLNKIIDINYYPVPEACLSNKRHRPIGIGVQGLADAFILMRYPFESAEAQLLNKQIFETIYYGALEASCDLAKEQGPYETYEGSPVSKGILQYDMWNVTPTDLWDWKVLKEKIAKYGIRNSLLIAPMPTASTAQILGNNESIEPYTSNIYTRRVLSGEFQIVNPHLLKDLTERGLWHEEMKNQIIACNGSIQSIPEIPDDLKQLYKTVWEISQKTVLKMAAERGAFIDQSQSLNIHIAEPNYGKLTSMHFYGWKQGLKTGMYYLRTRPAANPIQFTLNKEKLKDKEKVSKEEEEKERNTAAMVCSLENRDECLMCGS
In words: Human RNR inhibition effect (dCDP formation from CDP). It is filed as biochemical. The settings on record: 10 μM CDP, 37° C. for 30 minutes, read-out: RNR inhibitory activity IC50. How it is done:
The inhibitory activity against the ribonucleotide reduction reaction (RNR inhibitory activity) of the Example compound was determined by measuring the formation of deoxycytidine diphosphate (hereinafter referred to as dCDP) from cytidine diphosphate (hereinafter referred to as CDP) by the following method.
Human M1 subunit (isoform 1, GenBank accession No: NM_001033), to which a histidine tag is fused at the amino terminus, and human M2 subunit (mutant lacking amino terminal 59 amino acids of isoform 2, GenBank accession No: NM_001034), to which a histidine tag is fused, were overexpressed in Escherichia coli and were solubilized after collection, and histidine tagged human M1 and histidine tagged human M2 proteins were purified on a nickel chelate column. A mixture of the histidine tagged human M1 and histidine tagged human M2 proteins was used as RNR in the ribonucleotide reduction reaction. [to]
First, Example compounds were serially diluted with DMSO. Next, human M1 protein and human M2 protein were added to a 0.02% aqueous albumin solution derived from fetal bovine serum, a DMSO solution of the Example compound or the control DMSO solution (final concentration of DMSO was 1%) was added, and the mixture was allowed to stand for 20 minutes. Thereafter, the reaction buffer [50 mM HEPES buffer (pH 7.2) at the final concentration, 4 mM magnesium acetate at the final concentration, 100 mM potassium chloride at the final concentration, 6 mM dithiothreitol at the final concentration, 2 mM adenosine triphosphate at the final concentration, 0.24 mM nicotinamide adenine dinucleotide phosphate at final concentration] and 10 μM CDP at the final concentration were added and incubated at 37° C. for 30 minutes to perform ribonucleotide reduction reaction. Immediately after the reaction, the reaction was stopped by heating at 100° C. for 15 minutes, followed by centrifugation at 10,000 rpm for 10 minutes. After the centrifugation, a portion (5 μL) of the resulting supernatant was analyzed with a high performance liquid chromatography (Shimadzu Corporation, Prominence) using Shim-pack XR-ODS (manufactured by Shimadzu GLC Co., 3.0×100 mm).

`Cc1c(F)ccc(F)c1[C@@H](C)[C@H](NS(=O)(=O)c1ccc(Cl)cc1C(N)=O)c1n[nH]c(=O)o1` [Example 28, 5-chloro-2-(N-((1S,2R)-2-(3,6-difluoro-2-methylphenyl)-1-(5-oxo-4,5-dihydro-1,3,4-oxadiazol-2-yl)propyl)sulfamoyl)benzamide]: the IC50 worked out at 500 nM.
`Cc1c(Br)ccc(F)c1[C@@H](C)[C@H](NS(=O)(=O)c1ccc(Cl)cc1C(N)=O)c1n[nH]c(=O)o1` [Example 30, 2-(N-((1S,2R)-2-(3-bromo-6-fluoro-2-methylphenyl)-1-(5-oxo-4,5-dihydro-1,3,4-oxadiazol-2-yl)propyl)sulfamoyl)-5-chlorobenzamide]: the IC50 is 150 nM.
Turning to `Cc1ccc(F)c([C@@H](C)[C@H](NS(=O)(=O)c2ccc(Cl)c(C(N)=O)n2)c2n[nH]c(=O)o2)c1C` [Example 31, 3-chloro-6-(N-((1S,2R)-2-(6-fluoro-2,3-dimethylphenyl)-1-(5-oxo-4,5-dihydro-1,3,4-oxadiazol-2-yl)propyl)sulfamoyl)picolinamide], the IC50 was 100 nM.
For the molecule `Cc1ccc(F)c([C@H](C)[C@H](NS(=O)(=O)c2ccc(Cl)cc2C(N)=O)c2n[nH]c(=O)o2)c1C` [Example 32, 5-chloro-2-(N-((1S,2S)-2-(6-fluoro-2,3-dimethylphenyl)-1-(5-oxo-4,5-dihydro-1,3,4-oxadiazol-2-yl)propyl)sulfamoyl)benzamide], the IC50 was 790 nM.
For `Cc1c(Br)ccc(F)c1[C@@H](C)[C@H](NS(=O)(=O)c1ccc(Br)cc1C(N)=O)c1n[nH]c(=O)o1` [Example 35, 5-bromo-2-(N-((1S,2R)-2-(3-bromo-6-fluoro-2-methylphenyl)-1-(5-oxo-4,5-dihydro-1,3,4-oxadiazol-2-yl)propyl)sulfamoyl)benzamide] the value was 130 nM; for `Cc1ccc(F)c([C@@H](C)[C@H](NS(=O)(=O)c2cc(C(=O)N3CCOCC3)ccc2C(N)=O)c2n[nH]c(=O)o2)c1C` [Example 36, 2-(N-((1S,2R)-2-(6-fluoro-2,3-dimethylphenyl)-1-(5-oxo-4,5-dihydro-1,3,4-oxadiazol-2-yl)propyl)sulfamoyl)-4-(morpholine-4-carbonyl)benzamide], 110 nM.
For `Cc1ccc(F)c([C@@H](C)[C@H](NS(=O)(=O)c2cc(C(=O)N(C)C)ccc2C(N)=O)c2n[nH]c(=O)o2)c1C` [Example 37, 3-(N-((1S,2R)-2-(6-fluoro-2,3-dimethylphenyl)-1-(5-oxo-4,5-dihydro-1,3,4-oxadiazol-2-yl)propyl)sulfamoyl)-N1,N1-dimethylterephthalamide] the value was 140 nM; for `Cc1ccc(F)c([C@@H](C)[C@H](NS(=O)(=O)c2cc(C(=O)O)c(Cl)cc2C(N)=O)c2n[nH]c(=O)o2)c1C` [Example 38, 4-carbamoyl-2-chloro-5-(N-((1S,2R)-2-(6-fluoro-2,3-dimethylphenyl)-1-(5-oxo-4,5-dihydro-1,3,4-oxadiazol-2-yl)propyl)sulfamoyl)benzoic acid], 190 nM.
For `Cc1ccc(F)c([C@@H](C)[C@H](NS(=O)(=O)c2cc(C(=O)N(C)C)c(Cl)cc2C(N)=O)c2n[nH]c(=O)o2)c1C` [Example 39, 2-chloro-5-(N-((1S,2R)-2-(6-fluoro-2,3-dimethylphenyl)-1-(5-oxo-4,5-dihydro-1,3,4-oxadiazol-2-yl)propyl)sulfamoyl)-N1,N1-dimethyl terephthalamide] the value was 40 nM; for `Cc1ccc(F)c([C@@H](C)[C@H](NS(=O)(=O)c2cnc(Cl)cc2C(N)=O)c2n[nH]c(=O)o2)c1C` [Example 40, 2-chloro-5-(N-((1S,2R)-2-(6-fluoro-2,3-dimethylphenyl)-1-(5-oxo-4,5-dihydro-1,3,4-oxadiazol-2-yl)propyl)sulfamoyl)isonicotinamide], 130 nM.
Regarding `Cc1ccc(F)c([C@@H](C)[C@H](NS(=O)(=O)c2ccc(C(F)(F)F)cc2C(N)=O)c2n[nH]c(=O)o2)c1C` [Example 41, 2-(N-((1S,2R)-2-(6-fluoro-2,3-dimethylphenyl)-1-(5-oxo-4,5-dihydro-1,3,4-oxadiazol-2-yl)propyl)sulfamoyl)-5-(trifluoromethyl)benzamide], the IC50 was 100 nM.
For `Cc1c(Br)ccc(F)c1[C@@H](C)[C@H](NS(=O)(=O)c1ccc(C(F)(F)F)cc1C(N)=O)c1n[nH]c(=O)o1` [Example 42, 2-(N-((1S,2R)-2-(3-bromo-6-fluoro-2-methylphenyl)-1-(5-oxo-4,5-dihydro-1,3,4-oxadiazol-2-yl)propyl)sulfamoyl)-5-(trifluoromethyl)benzamide] the value was 200 nM; for `[2H]C([2H])([2H])[C@H](c1c(F)ccc(C)c1C)[C@H](NS(=O)(=O)c1ccc(Cl)cc1C(N)=O)c1n[nH]c(=O)o1` [Example 43, 5-chloro-2-[[(1S,2R)-3,3,3-trideuterio-2-(6-fluoro-2,3-dimethylphenyl)-1-(2-oxo-3H-1,3,4-oxadiazol-5-yl)propyl]sulfamoyl]benzamide], 80 nM; for `C[C@H](c1cccc2ccccc12)[C@H](NS(=O)(=O)c1ccc(Cl)cc1Cl)c1n[nH]c(=O)o1` [Example 46, 2,4-dichloro-N-((1S,2R)-2-(naphthalen-1-yl)-1-(5-oxo-4,5-dihydro-1,3,4-oxadiazol-2-yl)propyl)benzenesulfonamide], 840 nM.
On to `CC1CCc2cccc(C(C)[C@H](NS(=O)(=O)c3ccc(Br)cn3)c3n[nH]c(=O)o3)c21` (stereo partly drawn) [Example 48, 5-bromo-N-((1S)-2-(3-methyl-2,3-dihydro-1H-inden-4-yl)-1-(5-oxo-4,5-dihydro-1,3,4-oxadiazol-2-yl)propyl)pyridine-2-sulfonamide], for which the IC50 turned out to be 600 nM.
For `C[C@H](c1cccc2c1Cc1ccccc1-2)[C@H](NS(=O)(=O)c1ccc(Br)cn1)c1n[nH]c(=O)o1` [Example 49, N-((1S,2R)-2-(9H-fluoren-1-yl)-1-(5-oxo-4,5-dihydro-1,3,4-oxadiazol-2-yl)propyl)-5-bromopyridine-2-sulfonamide] the value was 800 nM; for `C[C@H](c1cccc2c1-c1ccccc1C2)[C@H](NS(=O)(=O)c1ccc(Br)cn1)c1n[nH]c(=O)o1` [Example 50, N-((1S,2R)-2-(9H-fluoren-4-yl)-1-(5-oxo-4,5-dihydro-1,3,4-oxadiazol-2-yl)propyl)-5-bromopyridine-2-sulfonamide], 850 nM.
For `C[C@H](c1cccc2c1CCCC2)[C@H](NS(=O)(=O)c1ccc(Cl)cn1)c1n[nH]c(=O)o1` [Example 52] the value was 770 nM; for `C[C@H](c1cccc2c1CCC2)[C@H](NS(=O)(=O)c1ccc(Br)cc1F)c1n[nH]c(=O)o1` [Example 60, 4-bromo-N-((1S,2R)-2-(2,3-dihydro-1H-inden-4-yl)-1-(5-oxo-4,5-dihydro-1,3,4-oxadiazol-2-yl)propyl)-2-fluorobenzenesulfonamide], 990 nM.
For `COc1cc(Cl)ccc1S(=O)(=O)N[C@H](c1n[nH]c(=O)o1)[C@H](C)c1cccc2c1CC(C)C2` (stereo partly drawn) [Example 67, 4-chloro-2-methoxy-N-((1S,2R)-2-(2-methyl-2,3-dihydro-1H-inden-4-yl)-1-(5-oxo-4,5-dihydro-1,3,4-oxadiazol-2-yl)propyl)benzenesulfonamide] the value was 700 nM; for `COc1cc(Cl)ccc1S(=O)(=O)N[C@H](c1n[nH]c(=O)o1)[C@H](C)c1cccc2cccc(C)c12` [Example 71, 4-chloro-2-methoxy-N-((1S,2R)-2-(8-methylnaphthalen-1-yl)-1-(5-oxo-4,5-dihydro-1,3,4-oxadiazol-2-yl)propyl)benzenesulfonamide], 240 nM.

The IC50 is the concentration that inhibits the measured activity by half.
